ChEMBL document CHEMBL1201862, “PubChem BioAssay data set” (2004)
Values belong to the molecule of their own block, whether it stands above or below them. Activity calls are given as the source filed them.

Columns and labels:
[1] = molecular target: T1, Small ubiquitin-related modifier 1 (Homo sapiens, UniProt P63165); assay: SUMO1 protein-protein binding blockers, potency – biochemical, FRET, dose response (AID 624383); assay type: functional; conditions: read-out: IC50_Mean
[2] = molecular target: T1, Small ubiquitin-related modifier 1; assay: SUMO1 protein interaction blockers, potency – biochemical, fluorescence polarization, uHTS hits, dose response (AID 624382); assay type: functional; conditions: read-out: IC50_Mean
[3] = Counterscreen for activators of the function of SWI/SNF related, matrix associated, actin dependent regulator of chromatin, subfamily a, member 2 (SMARCA2, BRM): Luminescence-based cell-based high throughput dose response assay to identify non-selective compounds using the VP16 reporter assay.; assay type: functional
[4] = viability of uninfected HEp-2 cells – cell-based, HTS, cytotoxicity control for RSV inhibitor project, dose response (AID 2410); assay type: functional; conditions: human respiratory syncytial virus
[5] = molecular target: SWI/SNF-related matrix-associated actin-dependent regulator of chromatin subfamily A member 2 (Homo sapiens, UniProt P51531); assay: Luminescence-based cell-based high throughput dose response assay to identify activators of the function of SWI/SNF related, matrix associated, actin dependent regulator of chromatin, subfamily a, member 2 (SMARCA2, BRM).; assay type: functional
Sequence of SWI/SNF-related matrix-associated actin-dependent regulator of chromatin subfamily A member 2 (P51531 whole entry): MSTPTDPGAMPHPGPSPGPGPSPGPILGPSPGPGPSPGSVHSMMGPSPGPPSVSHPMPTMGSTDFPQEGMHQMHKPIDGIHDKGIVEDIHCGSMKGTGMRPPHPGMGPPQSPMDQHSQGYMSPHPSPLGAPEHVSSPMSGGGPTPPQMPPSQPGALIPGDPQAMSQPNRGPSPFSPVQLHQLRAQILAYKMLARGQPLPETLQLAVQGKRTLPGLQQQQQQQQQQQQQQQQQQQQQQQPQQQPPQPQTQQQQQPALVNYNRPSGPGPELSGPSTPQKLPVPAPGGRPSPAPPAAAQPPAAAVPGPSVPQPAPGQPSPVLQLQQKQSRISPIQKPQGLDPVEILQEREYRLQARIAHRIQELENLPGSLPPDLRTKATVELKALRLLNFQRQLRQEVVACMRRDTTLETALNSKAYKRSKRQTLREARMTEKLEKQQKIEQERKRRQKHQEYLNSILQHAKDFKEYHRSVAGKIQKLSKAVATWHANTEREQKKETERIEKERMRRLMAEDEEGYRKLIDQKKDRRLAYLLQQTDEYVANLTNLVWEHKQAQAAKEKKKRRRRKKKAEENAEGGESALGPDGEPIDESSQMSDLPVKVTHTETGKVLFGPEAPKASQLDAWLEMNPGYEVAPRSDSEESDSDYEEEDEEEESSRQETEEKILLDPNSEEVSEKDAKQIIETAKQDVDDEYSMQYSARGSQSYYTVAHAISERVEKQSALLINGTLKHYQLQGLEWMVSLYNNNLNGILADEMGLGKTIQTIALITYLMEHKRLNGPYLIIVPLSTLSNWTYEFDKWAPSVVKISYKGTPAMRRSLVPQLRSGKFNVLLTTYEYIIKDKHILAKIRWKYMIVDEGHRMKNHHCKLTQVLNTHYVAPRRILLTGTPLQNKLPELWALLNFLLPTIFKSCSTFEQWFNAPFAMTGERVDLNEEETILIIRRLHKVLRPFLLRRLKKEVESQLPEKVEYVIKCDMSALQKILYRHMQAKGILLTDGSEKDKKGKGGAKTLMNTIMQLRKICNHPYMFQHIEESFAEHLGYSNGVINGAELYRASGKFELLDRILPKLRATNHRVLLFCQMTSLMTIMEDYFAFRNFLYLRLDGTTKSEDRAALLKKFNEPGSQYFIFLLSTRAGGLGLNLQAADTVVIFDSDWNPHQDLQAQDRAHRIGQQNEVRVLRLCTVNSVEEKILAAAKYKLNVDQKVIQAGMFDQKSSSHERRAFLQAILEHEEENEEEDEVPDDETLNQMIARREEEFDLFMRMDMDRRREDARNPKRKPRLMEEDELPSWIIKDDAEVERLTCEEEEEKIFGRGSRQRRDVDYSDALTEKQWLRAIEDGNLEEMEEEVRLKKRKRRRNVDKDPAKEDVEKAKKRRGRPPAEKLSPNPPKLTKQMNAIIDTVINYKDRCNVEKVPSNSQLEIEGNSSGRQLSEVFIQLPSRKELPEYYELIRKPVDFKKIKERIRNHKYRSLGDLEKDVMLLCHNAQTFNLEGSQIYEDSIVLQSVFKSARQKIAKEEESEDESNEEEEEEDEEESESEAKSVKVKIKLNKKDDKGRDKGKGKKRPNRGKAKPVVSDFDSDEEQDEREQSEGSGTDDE

[6] = molecular target: T2, Short transient receptor potential channel 4 (Mus musculus, UniProt Q9QUQ5); assay: calcium entry via TRPC4 opening agents – cell-based, HEK293 TRPC4/mu-opioid, Fluo-4 calcium, dose response (AID 434937); assay type: functional
T2 sequence (Q9QUQ5 whole entry): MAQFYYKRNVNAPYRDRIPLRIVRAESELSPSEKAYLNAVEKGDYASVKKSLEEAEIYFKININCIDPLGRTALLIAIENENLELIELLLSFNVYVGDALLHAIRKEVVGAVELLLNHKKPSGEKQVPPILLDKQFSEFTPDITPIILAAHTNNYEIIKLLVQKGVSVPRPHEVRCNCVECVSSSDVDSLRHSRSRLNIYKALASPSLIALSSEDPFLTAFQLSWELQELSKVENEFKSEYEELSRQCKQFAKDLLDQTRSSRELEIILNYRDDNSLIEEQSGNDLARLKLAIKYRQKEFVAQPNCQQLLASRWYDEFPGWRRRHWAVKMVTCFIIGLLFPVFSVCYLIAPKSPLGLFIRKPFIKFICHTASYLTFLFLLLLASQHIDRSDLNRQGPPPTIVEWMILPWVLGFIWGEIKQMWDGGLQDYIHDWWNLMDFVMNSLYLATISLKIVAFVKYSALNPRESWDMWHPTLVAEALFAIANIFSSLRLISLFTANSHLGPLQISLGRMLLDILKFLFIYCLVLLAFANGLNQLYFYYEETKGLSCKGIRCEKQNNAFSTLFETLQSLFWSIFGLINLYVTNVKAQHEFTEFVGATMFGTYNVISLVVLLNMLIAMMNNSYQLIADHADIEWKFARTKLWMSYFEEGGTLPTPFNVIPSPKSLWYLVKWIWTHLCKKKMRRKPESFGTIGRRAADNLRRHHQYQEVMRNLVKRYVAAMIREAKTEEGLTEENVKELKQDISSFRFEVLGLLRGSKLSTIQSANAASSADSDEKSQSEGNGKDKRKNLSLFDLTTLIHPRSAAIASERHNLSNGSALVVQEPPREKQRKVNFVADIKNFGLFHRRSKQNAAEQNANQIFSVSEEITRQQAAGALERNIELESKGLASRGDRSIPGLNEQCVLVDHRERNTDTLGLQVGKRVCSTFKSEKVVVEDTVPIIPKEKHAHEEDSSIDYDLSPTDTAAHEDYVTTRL

[7] = molecular target: T3, Tyrosine-protein phosphatase non-receptor type 22 (Homo sapiens, UniProt Q9Y2R2); assay: PTPN22 enzyme inhibitors – biochemical, fluorescence, LYP catalytic domain, selectivity assay for LMPTP inhibitor project, dose response (AID 652006); assay type: functional; conditions: read-out: IC50_Mean
T3 sequence (Q9Y2R2 whole entry): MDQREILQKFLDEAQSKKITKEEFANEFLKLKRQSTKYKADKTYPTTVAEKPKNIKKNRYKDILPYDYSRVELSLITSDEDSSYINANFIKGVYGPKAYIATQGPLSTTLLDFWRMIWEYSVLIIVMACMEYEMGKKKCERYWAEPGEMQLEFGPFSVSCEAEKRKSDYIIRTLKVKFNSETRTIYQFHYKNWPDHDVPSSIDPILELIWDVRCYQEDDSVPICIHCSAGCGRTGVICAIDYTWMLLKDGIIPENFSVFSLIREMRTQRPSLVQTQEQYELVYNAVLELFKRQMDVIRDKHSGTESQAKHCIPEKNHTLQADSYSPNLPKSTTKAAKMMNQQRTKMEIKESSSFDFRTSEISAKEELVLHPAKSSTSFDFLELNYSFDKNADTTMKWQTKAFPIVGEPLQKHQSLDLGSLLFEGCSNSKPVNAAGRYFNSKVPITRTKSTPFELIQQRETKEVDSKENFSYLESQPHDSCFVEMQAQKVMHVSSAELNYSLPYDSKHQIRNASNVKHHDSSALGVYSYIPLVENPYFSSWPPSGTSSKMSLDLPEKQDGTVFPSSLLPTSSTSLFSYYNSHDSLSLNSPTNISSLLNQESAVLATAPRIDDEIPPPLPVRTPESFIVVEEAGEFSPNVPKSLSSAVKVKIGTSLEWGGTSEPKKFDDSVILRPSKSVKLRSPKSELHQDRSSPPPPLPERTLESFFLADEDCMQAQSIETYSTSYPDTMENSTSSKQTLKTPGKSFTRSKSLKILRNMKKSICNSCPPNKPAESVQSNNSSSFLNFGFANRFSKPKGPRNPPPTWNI

[8] = molecular target: T4, Low molecular weight phosphotyrosine protein phosphatase (Homo sapiens, UniProt P24666); assay type: functional; conditions: read-out: IC50_Mean;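 note: Dose-response confirmation assay measuring inhibition of LMPTP enzyme activity by fluorescence intensity read-out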
T4 sequence (P24666 whole entry): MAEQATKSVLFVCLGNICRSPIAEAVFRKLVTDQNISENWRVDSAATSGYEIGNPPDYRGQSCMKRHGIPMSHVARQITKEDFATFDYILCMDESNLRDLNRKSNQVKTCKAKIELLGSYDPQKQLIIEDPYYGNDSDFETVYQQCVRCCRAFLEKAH

[9] = HEK-293T viability loss after treatment – luminescence, T-cell screen hits, cytotoxicity control for TCR NF-kB inhibitor project, dose response (AID 489026); assay type: functional, cell-based;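 note: cells exposed to compound about 14 hours before the viability readout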
[10] = molecular target: Peroxisome proliferator-activated receptor gamma/Nuclear receptor corepressor 2 (Homo sapiens, UniProt P37231+Q9Y618); assay: Counterscreen for NR2E3 inverse agonists: TR-FRET-based biochemical high throughput dose response assay to identify inverse agonists of the interaction between peroxisome proliferator-activated receptor gamma (PPARg) and nuclear receptor co-repressor 2 (NCOR2).; assay type: functional
Sequence of Peroxisome proliferator-activated receptor gamma/Nuclear receptor corepressor 2 (P37231 whole entry): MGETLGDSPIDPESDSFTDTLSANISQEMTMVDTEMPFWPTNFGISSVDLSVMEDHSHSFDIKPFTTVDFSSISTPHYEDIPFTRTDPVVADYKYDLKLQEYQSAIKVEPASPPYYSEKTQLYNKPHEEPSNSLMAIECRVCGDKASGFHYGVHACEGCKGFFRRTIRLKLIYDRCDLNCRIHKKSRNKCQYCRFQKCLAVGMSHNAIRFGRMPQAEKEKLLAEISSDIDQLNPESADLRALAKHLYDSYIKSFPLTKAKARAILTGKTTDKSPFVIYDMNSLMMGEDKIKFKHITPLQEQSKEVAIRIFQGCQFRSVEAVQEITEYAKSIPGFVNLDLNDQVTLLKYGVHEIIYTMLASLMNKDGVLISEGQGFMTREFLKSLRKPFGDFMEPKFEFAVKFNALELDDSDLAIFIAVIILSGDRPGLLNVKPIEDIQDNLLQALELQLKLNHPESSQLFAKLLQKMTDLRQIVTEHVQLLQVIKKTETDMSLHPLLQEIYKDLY
Sequence of Peroxisome proliferator-activated receptor gamma/Nuclear receptor corepressor 2 (Q9Y618 whole entry): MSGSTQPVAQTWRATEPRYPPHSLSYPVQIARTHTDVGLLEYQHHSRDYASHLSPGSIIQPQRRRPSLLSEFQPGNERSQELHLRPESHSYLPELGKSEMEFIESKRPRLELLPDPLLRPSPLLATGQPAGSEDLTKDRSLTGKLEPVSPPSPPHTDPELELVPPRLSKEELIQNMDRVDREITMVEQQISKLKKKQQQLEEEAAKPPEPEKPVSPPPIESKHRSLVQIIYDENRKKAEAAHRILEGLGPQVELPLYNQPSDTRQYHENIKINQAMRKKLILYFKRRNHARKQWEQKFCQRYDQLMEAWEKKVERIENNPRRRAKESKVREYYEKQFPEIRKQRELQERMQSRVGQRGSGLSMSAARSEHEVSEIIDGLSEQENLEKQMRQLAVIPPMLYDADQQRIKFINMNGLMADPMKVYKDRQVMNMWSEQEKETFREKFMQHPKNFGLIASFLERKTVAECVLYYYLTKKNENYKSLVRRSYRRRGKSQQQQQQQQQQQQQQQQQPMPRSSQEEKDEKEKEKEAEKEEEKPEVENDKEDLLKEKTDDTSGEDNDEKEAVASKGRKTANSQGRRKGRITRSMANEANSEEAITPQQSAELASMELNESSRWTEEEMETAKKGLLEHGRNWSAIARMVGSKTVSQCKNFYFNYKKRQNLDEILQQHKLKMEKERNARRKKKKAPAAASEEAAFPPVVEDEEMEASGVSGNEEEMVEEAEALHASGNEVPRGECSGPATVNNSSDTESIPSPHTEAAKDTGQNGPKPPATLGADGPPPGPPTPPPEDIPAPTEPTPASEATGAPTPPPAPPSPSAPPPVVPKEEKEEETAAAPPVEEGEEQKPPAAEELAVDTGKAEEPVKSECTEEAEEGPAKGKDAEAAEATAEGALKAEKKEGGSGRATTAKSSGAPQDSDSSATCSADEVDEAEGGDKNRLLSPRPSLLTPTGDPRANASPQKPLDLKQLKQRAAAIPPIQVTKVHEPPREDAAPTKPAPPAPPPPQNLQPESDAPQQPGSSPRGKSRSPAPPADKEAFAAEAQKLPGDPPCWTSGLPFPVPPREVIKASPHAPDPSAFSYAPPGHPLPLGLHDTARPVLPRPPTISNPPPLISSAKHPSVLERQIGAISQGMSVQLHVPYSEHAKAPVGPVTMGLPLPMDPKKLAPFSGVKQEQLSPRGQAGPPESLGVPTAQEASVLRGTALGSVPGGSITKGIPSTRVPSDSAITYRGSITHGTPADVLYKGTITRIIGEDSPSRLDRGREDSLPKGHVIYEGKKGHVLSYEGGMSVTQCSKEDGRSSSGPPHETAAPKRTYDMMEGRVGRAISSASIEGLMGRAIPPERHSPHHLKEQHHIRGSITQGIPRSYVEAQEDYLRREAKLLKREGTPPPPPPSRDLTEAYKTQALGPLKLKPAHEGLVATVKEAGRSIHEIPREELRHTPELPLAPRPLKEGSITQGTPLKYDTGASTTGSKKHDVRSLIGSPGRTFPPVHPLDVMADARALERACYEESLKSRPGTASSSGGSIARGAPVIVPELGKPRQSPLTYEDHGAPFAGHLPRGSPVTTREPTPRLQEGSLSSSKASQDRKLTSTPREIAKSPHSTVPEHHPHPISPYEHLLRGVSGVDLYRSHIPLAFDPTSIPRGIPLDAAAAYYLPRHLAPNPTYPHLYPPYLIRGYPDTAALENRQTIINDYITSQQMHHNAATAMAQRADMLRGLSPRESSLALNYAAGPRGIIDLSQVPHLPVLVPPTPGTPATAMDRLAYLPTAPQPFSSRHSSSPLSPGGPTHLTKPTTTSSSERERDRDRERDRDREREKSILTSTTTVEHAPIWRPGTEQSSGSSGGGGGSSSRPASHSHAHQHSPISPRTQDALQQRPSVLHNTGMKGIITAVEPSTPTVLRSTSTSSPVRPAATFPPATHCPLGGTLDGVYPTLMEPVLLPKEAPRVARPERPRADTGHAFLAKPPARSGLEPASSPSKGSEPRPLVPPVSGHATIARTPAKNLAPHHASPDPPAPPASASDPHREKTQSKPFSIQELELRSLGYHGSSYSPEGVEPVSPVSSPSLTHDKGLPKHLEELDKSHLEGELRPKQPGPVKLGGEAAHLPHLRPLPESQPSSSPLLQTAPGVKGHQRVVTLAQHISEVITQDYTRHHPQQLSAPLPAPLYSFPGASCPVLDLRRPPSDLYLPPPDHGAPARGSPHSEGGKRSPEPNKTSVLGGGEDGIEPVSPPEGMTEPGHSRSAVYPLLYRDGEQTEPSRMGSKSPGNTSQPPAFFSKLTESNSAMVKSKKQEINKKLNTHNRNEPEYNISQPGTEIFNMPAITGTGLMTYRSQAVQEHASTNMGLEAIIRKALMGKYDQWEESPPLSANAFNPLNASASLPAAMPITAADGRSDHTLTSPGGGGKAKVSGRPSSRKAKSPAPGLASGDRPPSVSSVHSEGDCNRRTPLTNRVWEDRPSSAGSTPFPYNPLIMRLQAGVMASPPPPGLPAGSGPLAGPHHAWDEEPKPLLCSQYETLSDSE

[11] = molecular target: T5, Photoreceptor-specific nuclear receptor (Homo sapiens, UniProt Q9Y5X4); assay: ligands suppressing NR2E3 nuclear receptor activity – biochemical, TR-FRET, dose response (AID 463256); assay type: functional
T5 sequence (Q9Y5X4 whole entry): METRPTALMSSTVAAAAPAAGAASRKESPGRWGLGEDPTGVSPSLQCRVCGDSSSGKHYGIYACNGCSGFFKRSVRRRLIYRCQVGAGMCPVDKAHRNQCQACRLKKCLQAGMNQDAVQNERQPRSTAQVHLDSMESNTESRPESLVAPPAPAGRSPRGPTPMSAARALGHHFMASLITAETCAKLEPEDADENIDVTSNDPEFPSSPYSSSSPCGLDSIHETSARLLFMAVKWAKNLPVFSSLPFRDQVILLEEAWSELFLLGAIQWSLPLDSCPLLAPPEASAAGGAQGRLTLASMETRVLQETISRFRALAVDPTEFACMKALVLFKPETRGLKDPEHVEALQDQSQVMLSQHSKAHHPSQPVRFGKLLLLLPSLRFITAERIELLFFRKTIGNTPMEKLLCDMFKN

[12] = molecular target: T5, Photoreceptor-specific nuclear receptor; assay type: functional, cell-based

T1 sequence (P63165 whole entry): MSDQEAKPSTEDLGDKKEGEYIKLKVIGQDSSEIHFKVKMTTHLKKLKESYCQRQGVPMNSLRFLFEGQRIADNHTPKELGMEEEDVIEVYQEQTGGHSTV

Structure (SMILES): C/C=C/C=C\C(=O)Nc1cccc(C2=NOC3(C2)C[C@H](C(N)=O)N(C(=O)CC#N)C3)c1 (some centres undefined)
IC50 [1]: 3.34 µM (active)
IC50 [2]: > 66.6 µM (inactive)

Structure (SMILES): c1ccc2c(c1)nnn2-c1ncnc2sccc12
EC50 [3]: > 91.2 µM (inactive)
CC50 [4]: 46.8 µM (active)
EC50 [5]: > 91.2 µM (inactive)

EC50 [6]: 5.31 µM (active)
IC50 [7]: 37.9 µM (inactive)
IC50 [8]: 13.8 µM (active)
Structure (SMILES): CC(Nc1nc(N2CCNCC2)nc2ccccc12)c1ccccc1 (centres undefined)

Structure (SMILES): CC1(C)Cc2c(sc(NC(=O)COc3cccc4ccccc34)c2C#N)C(C)(C)N1
IC50 [9]: > 80 µM (inactive)
EC50 [3]: > 91.2 µM (inactive)
IC50 [10]: 8.33 µM (active)
EC50 [5]: > 10.1 µM (inactive)
IC50 [11]: 8.84 µM (active)

IC50 [12]: 2.01 µM (active)
Structure (SMILES): Cc1nc2ccc(S(=O)(=O)Nc3cccc(-c4nc5cccnc5s4)c3)cc2s1
